Measurements reported in patent US20200368211A1, “INHIBITION OF GAMMA-GLUTAMYLTRANSFERASE AND GLUTATHIONE CATABOLISM TO ENHANCE THE EFFICACY OF NF-KB SIGNALLING PATHWAY INHIBITORS” (UNIVERSITAET HEIDELBERG, priority 2017, published 2020).
“Also recorded” adds a separate entry of the source.

Columns and labels:
[1] = human plasma, stated as achievable; cited from earlier work
[2] = test system: MOLM13 cells; experiment: MTT cell proliferation assay, MOLM13 cells; type: cell-based, human; conditions: for Effect of auranofin and BSO low-dose combination on activity of NF-κB inhibitors, MOLM13: auranofin 0.25-0.5 μM plus BSO 1.25-10 μM with BAY 11-7082 or EF24
Experimental: For metabolic activity assays, here MTT-assays, cell density was 3×10^4 cells per well (96 well plate). For ROS/superoxide detection assays cell density was 1×10^5 per tube (volume 1 ml). […] The MTT or XTT assay is the most reliable for assessment of cell growth. In principal all assays are based on staining of viable cells after treatment. Cytotoxic effects in cell lines may also be assessed by [^3H] thymidine incorporation (see below). Cell proliferation was assessed by the MTT assay. […] The plates were incubated for 72 h under standard conditions. After addition of 15 μl of a 5 mg/ml MTT solution (MTT; Sigma, Germany) to each well and incubation for another 4 h, 100 μl/well of a 10% sodium dodecyl sulphate solution in 0.01 M hydrochloric acid were added and the plates were incubated overnight under the same conditions (stain development). Subsequently, the absorbance of each well at 540 nm (reference wavelength 690 nm) was recorded with an absorbance plate reader (Sunrise, Tecan, Switzerland). Blank control values (no drug, no cells) were subtracted from the sample values and the means of replicate wells for each drug dilution and the control (cells grown in absence of the drug) were used to calculate the extent of relative cell proliferation (as percentage of the control) and growth inhibition.

[3] = test system: MEC1 cells; experiment: MTT cell proliferation assay, MEC1 cells; type: cell-based, human; conditions: for Effect of auranofin and BSO low-dose combination on activity of NF-κB inhibitors, MEC1: auranofin 0.25-0.5 μM plus BSO 1.25-10 μM with BAY 11-7082 or EF24
Experimental: For metabolic activity assays, here MTT-assays, cell density was 3×10^4 cells per well (96 well plate). For ROS/superoxide detection assays cell density was 1×10^5 per tube (volume 1 ml). For NF-κB family member activation assays nuclear cell extracts were used (9×10^6 cells/6 ml volume in 6 well plates). The MTT or XTT assay is the most reliable for assessment of cell growth. In principal all assays are based on staining of viable cells after treatment. Cytotoxic effects in cell lines may also be assessed by [^3H] thymidine incorporation (see below). Cell proliferation was assessed by the MTT assay. […] The plates were incubated for 72 h under standard conditions. After addition of 15 μl of a 5 mg/ml MTT solution (MTT; Sigma, Germany) to each well and incubation for another 4 h, 100 μl/well of a 10% sodium dodecyl sulphate solution in 0.01 M hydrochloric acid were added and the plates were incubated overnight under the same conditions (stain development). Subsequently, the absorbance of each well at 540 nm (reference wavelength 690 nm) was recorded with an absorbance plate reader (Sunrise, Tecan, Switzerland). Blank control values (no drug, no cells) were subtracted from the sample values and the means of replicate wells for each drug dilution and the control (cells grown in absence of the drug) were used to calculate the extent of relative cell proliferation (as percentage of the control) and growth inhibition.

[4] = test system: MEC1 cells; experiment: Intracellular ROS/superoxide detection by flow cytometry, MEC1 cells; type: cell-based, human
Experimental: (§1) Intracellular ROS/superoxide levels were assessed by the ROS/superoxide Detection Assay Kit (ab139476, Abcam, Cambridge, UK) according to the manufacturer's protocol.
(§2) Cells were incubated with OU749 for 10 minutes prior to addition of serum or albumin (FCS or HS, both 10%, BSA or different HSA preparations as indicated), or albumin-supplemented FCS (supplementation with HSA or BSA: final albumin concentration 4-5 mg/ml). The final cell concentration was 1×10^5/ml/tube (volume 1 ml). Mean fluorescence intensities of at least 10000 events were assessed and compared.
(§3) ROS and superoxide levels were assessed by flow cytometry using the cellular ROS/superoxide Detection Assay Kit (ab139476, Abcam, Cambridge, UK) according to the manufacturer's protocol. […] Mean fluorescence intensities of at least 10000 events were assessed and compared.

[5] = test system: NF-κB family of transcription factors (p65, p50, c-Rel, p52 and RelB); experiment: NF-κB family member activation (TransAM, nuclear extracts), MEC1 cells; type: cell-based, human; conditions: 200 μM OU749, 10% HS, 4 h
Experimental: (§4) After 4 h incubation with defined concentrations of inhibitors of the NF-κB signalling pathway with or without co-incubation with OU749, nuclear extracts were prepared using the AM nuclear extract kit (Active Motif, La Hulpe, Belgium) according to the manufacturer's protocol. Protein concentration of the respective extracts was measured according to the Bradford method and 10 μg of total protein per preparation was used for assessment of the NF-κB family member activation.
(§5) For the assessment of NF-κB family member activation (p65, p50, c-Rel, p52 and RelB) the TransAM® NF-κB Family Transcription Factor Assay kit was applied (Active Motif, La Hulpe, Belgium) according to the manufacturer's instructions. Results were expressed as relative activation levels (relative to the activation of DMSO controls either in the presence of 10% FCS or 10% HS) and compared between different experimental settings.

[6] = test system: NF-κB family of transcription factors (p65, p50, c-Rel, p52 and RelB); experiment: NF-κB family member activation (TransAM, nuclear extracts), MOLM13 cells; type: cell-based, human; conditions: 200 μM OU749, 10% HS, 4 h
Experimental: as §4, §5

[7] = test system: HL60 cells; experiment: MTT cell proliferation assay, HL60 cells; type: cell-based, human; conditions: 200 μM OU749, 10% HS
Experimental: For assessment of cytostatic and/or cytotoxic effects HL60 cells were washed in serum-free RPMI-1640 medium supplemented with 2 mM L-glutamine and 1% penicillin/streptomycin and diluted to 1.25×10^5/ml (logarithmic cell growth). Cells were incubated with OU749 for 10 minutes prior to addition of serum (FCS or HS, both 10%) to washed cells resulting in a density of 1.11×10^5/ml. For MTT-assays cell density was 1×10^4 cells per well (96 well plate).
The MTT or XTT assay is the most reliable for assessment of cell growth. In principal all assays are based on staining of viable cells after treatment. Cytotoxic effects in cell lines may also be assessed by [^3H] thymidine incorporation (see below). Cell proliferation was assessed by the MTT assay. After washing in serum-free medium, pre-incubation with inhibitors of the glutathione catabolism, and addition of defined serum or albumin or serum+albumin concentrations, 90-μl aliquots of the cell suspension (density see above) were dispensed into 96-well flat-bottomed microtitre plates containing 10 μl/well of serial drug dilutions. The plates were incubated for 72 h under standard conditions. After addition of 15 μl of a 5 mg/ml MTT solution (MTT; Sigma, Germany) to each well and incubation for another 4 h, 100 μl/well of a 10% sodium dodecyl sulphate solution in 0.01 M hydrochloric acid were added and the plates were incubated overnight under the same conditions (stain development). Subsequently, the absorbance of each well at 540 nm (reference wavelength 690 nm) was recorded with an absorbance plate reader (Sunrise, Tecan, Switzerland). Blank control values (no drug, no cells) were subtracted from the sample values and the means of replicate wells for each drug dilution and the control (cells grown in absence of the drug) were used to calculate the extent of relative cell proliferation (as percentage of the control) and growth inhibition. Since inhibitors were initially dissolved in DMSO, serial drug dilutions and controls were prepared to finally achieve 0.2% DMSO in all wells (total volume 100 μl); no anti-proliferative effects could be observed at this DMSO concentration in the investigated cell lines.
After washing in serum-free medium cells were diluted to desired density (3.70×10^5/ml for MEC1 and MOLM13, 1.25×10^5/ml for HL60) and HS and FCS was added both in a final concentration of 10%. Then 90-μl aliquots of the cell suspension (densities after addition of serum: 3.33×10^5/ml for MEC1 and MOLM13, 1.1×10^5/ml for HL60) were dispensed into 96-well flat-bottomed microtitre plates containing 10 μl/well of serial drug dilutions of NF-κB inhibitors. The cell concentrations in the 96 well plate were: 3×10^4/well for MEC1 and MOLM13, 1×10^4/well for HL60.
Then 90-μl aliquots of the cell suspension (densities after addition of serum: 3.33×10^5/ml for MEC1 and MOLM13, 1.1×10^5/ml for HL60) were dispensed into 96-well flat-bottomed microtitre plates containing 10 μl/well of serial drug dilutions of NF-κB inhibitors. The cell concentrations in the 96 well plates were: 3×10^4/well for MEC1 and MOLM13, 1×10^4/well for HL60.

[8] = test system: MOLM13 cells; experiment: Intracellular ROS/superoxide detection by flow cytometry, MOLM13 cells; type: cell-based, human
Experimental: as §1, §2, §3

[9] = OU749 100 μM for 10% FCS, 200 μM for 10% HS or BSA/HSA 20 mg/ml, versus DMSO
[10] = with BAY 11-7082, 10% FCS (to a lesser extent 10% HS), versus H2O

For `C/C(O)=C(\C#N)C(=O)Nc1ccc(C(F)(F)F)cc1` [A77 726], which “Achievable plasma concentrations of the active metabolite of leflunomide” value [1] is on record?
The value was “about 176 μg/ml; also recorded: about 635 μM”.

Which “Effect of auranofin and BSO low-dose combination on activity of NF-κB inhibitors, MOLM13” value ([2]; 10% HS) does the source give for `CCCCS(=N)(=O)CCC(N)C(=O)O` (centres unmarked) [BSO, buthionine sulfoximine] here?
The value was “enhance/restore the activity of NF-κB inhibitors”.

And the “Effect of auranofin and BSO low-dose combination on activity of NF-κB inhibitors, MEC1” value ([3]; 10% HS)?
The value was “enhance/restore the activity of NF-κB inhibitors”.

Which “Toxic effects of OU749 in HS-supplemented systems, MOLM13” value ([2]; 200 μM OU749, 10% HS) does the source give for `COc1ccc(Cc2nnc(NS(=O)(=O)c3ccccc3)s2)cc1` [OU749, N-[5-(4-methoxybenzyl)-1,3,4-thiadiazol-2-yl]benzenesulfonamide] here?
Its value is “no toxic effects”.

And the “OU749 concentration above which anti-proliferative effects are apparent, MOLM13, 10% FCS” value ([2]; 10% FCS, 72 h, single agent)?
The value was “above 50 μM”.

What about the “OU749 concentration at which anti-proliferative effects appear, MOLM13, 10% HS” value ([2]; 10% HS, 72 h, single agent) of the same compound?
The value was no less than 200 µM.

What about the “ROS levels, OU749 versus DMSO, MEC1 in HS medium” value ([4]; 200 μM OU749, 10% HS) of the same compound?
The value was “enhanced ROS levels”.

What about the “Intracellular ROS levels, OU749 in presence of serum and albumin, MEC1” value [4, 9] of the same compound?
Its value is “increases intracellular ROS levels”.

And the “Toxic effects of OU749 in HS-supplemented systems, MEC1” value ([3]; 200 μM OU749, 10% HS)?
Its value is “no toxic effects”.

What about the “OU749 concentration above which anti-proliferative effects are apparent, MEC1, 10% FCS” value ([3]; 10% FCS, 72 h, single agent) of the same compound?
The value was “above 50 μM”.

And the “OU749 concentration at which anti-proliferative effects appear, MEC1, 10% HS” value ([3]; 10% HS, 72 h, single agent)?
Its value is no less than 200 µM.

What about the “Nuclear levels of NF-κB transcription factors, OU749 alone in HS, MEC1” value [5] of the same compound?
Its value is “increased nuclear levels of different members of the NF-κB family of transcription factors”.

What about the “Nuclear levels of NF-κB transcription factors, OU749 alone in HS, MOLM13” value [6] of the same compound?
Its value is “increased nuclear levels of different members of the NF-κB family of transcription factors”.

And the “Toxic effects of OU749 in HS-supplemented systems, HL60” value [7]?
Its value is “no toxic effects”.

What about the “ROS levels, OU749 versus DMSO, MOLM13 in HS medium” value ([8]; 200 μM OU749, 10% HS) of the same compound?
Its value is “enhanced ROS levels”.

What about the “Intracellular ROS levels, OU749 in presence of serum and albumin, MOLM13” value [8, 9] of the same compound?
The value was “increases intracellular ROS levels”.

With `CC(=O)OC[C@H]1O[C@@H]([S-])[C@H](OC(C)=O)[C@@H](OC(C)=O)[C@@H]1OC(C)=O.CCP(CC)CC.[Au+]` [auranofin] as the compound, how does the “Effect of auranofin and BSO low-dose combination on activity of NF-κB inhibitors, MOLM13” value ([2]; 10% HS) read?
Its value is “enhance/restore the activity of NF-κB inhibitors”.

And the “Effect of auranofin and BSO low-dose combination on activity of NF-κB inhibitors, MEC1” value ([3]; 10% HS)?
The value was “enhance/restore the activity of NF-κB inhibitors”.

Which results are given for `N[C@@H](CS)C(=O)NCC(=O)O` [cysteinyl-glycin]?
Effect of cysteinyl-glycin on activity of NF-κB inhibitors, MOLM13 [2, 10]: decrease the activity of NF-κB inhibitors; Effect of cysteinyl-glycin on activity of NF-κB inhibitors, MEC1 [3, 10]: decrease the activity of NF-κB inhibitors
